Measured values reported in US9974784B2, “Inhibitors of activin-like receptor kinases” (The Texas A & M University System, priority 2015, dated 2018).

Tests used:
BMP signaling = details: pharmacological inhibition of BMP signaling; cited from earlier work
ALK2 [1] = biological target: T1, ALK2 (Homo sapiens, UniProt Q04771); assay: SDS and native polyacrylamide gel electrophoresis analysis of ALK2 destabilization; details: SDS-PAGE / gel electrophoresis, FIG. 8, increasing concentrations of test compound vs control compound
T1 sequence (Q04771 21-509): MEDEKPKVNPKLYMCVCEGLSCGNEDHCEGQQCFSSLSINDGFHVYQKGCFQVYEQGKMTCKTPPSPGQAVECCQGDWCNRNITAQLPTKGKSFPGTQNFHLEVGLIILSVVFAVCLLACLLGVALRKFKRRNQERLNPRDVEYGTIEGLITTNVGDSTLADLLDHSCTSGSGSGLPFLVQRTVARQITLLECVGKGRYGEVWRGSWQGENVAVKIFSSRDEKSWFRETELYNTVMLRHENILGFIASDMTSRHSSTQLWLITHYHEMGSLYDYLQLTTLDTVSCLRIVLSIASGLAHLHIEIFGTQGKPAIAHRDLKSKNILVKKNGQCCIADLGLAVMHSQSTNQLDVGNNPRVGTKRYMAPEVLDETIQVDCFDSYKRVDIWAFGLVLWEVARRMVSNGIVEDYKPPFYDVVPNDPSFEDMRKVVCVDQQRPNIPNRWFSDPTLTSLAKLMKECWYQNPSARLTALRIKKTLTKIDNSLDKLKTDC
Experimental: Destabilizing effects of a compound identified by a method of the claimed invention, were observed by SDS and native polyacrylamide gel electrophoresis analyses (FIG. 8), and were confirmed by monitoring protein unfolding with a hydrophobic fluoroprobe (SYPRO orange) in 96-well plate format with a quantitative PCR instrument (Thermofluor assay). The allosteric inhibitor shifted the melting temperature of Dorsomorphin-stabilized ALK2 from approximately 55° C. down to 35° C. in a concentration dependent manner that correlated with concentration dependent inhibition of ALK2 kinase activity.
The comparative stabilities of the kinase protein were tested at varying pH levels in the presence of compounds identified by the methods of the claimed invention. […] Thermofluor assays provide independent confirmation of the effect of decreasing pH on the stability (FIG. 10) and sensitivity to an allosteric destabilizer (FIG. 11) of the kinase protein. […] Hypoxic conditions typically occur in tissues that are faced with traumas such as those caused by surgery or injury.

ALK2 [2] = biological target: T1, ALK2; assay: screening assay for compounds that bind an allosteric site of ALK2 and destabilize the protein
Description: Screening assays were set up to identify compounds that were capable of binding to a specific location in ALK2. This location was a ring-shaped pocket that contains a single centrally located sidechain, that of a histidine in ALK1 and ALK2, and an aspartate in the other five receptor kinases of the family. Numerous compounds were docked in poses that wrap the scaffolds around the central “island” residue, with terminal groups oriented in a head-to-tail fashion. Covalent linkage of the juxtaposed groups to form macrocyclic compounds is likely feasible in many cases. Through reduction in the entropic cost of binding due to constraint of rotatable bonds, as well as other properties, macrocycles have become an attractive scaffold for medicinal chemists in modern drug discovery.
According to a further embodiment of the invention, a screening assay is carried out to identify compounds that bind to an allosteric site of ALK2 and cause destabilization of the protein.

Row | destabilization of ALK-2 (ALK2 [2]) | SMILES | further results
1 |  | c1ccc2c(-c3cnn4cc(-c5ccc(N6CCNCC6)cc5)cnc34)ccnc2c1 [LDN-193189] | effect on muscle (BMP signaling): leads to muscle wasting or cachexia
2 |  | Cc1onc(-c2ccccc2)c1C(=O)NCC1Cc2cccc(-c3ccccn3)c2O1 (centres unmarked) [compound 8, 5-methyl-3-phenyl-N-{[7-(2-pyridinyl)-2,3-dihydro-1-benzofuran-2-yl]methyl}-4-isoxazolecarboxamide] | destabilization of ALK2 receptor kinase (ALK2 [1]): destabilization of ALK2 receptor kinase
3 | cause destabilization of ALK-2 | Cc1cc(NS(=O)(=O)c2ccc3c(c2)C2C4CCC(C4)C2C(c2cccc(C(=O)O)c2)N3)no1 (centres unmarked) [compound 14, 3-{2-[(5-methyl-1,2-oxazol-3-yl)sulfamoyl]-5,6,6a,7,8,9,10,10a-octahydro-7,10-methanophenanthridin-6-yl}benzoic acid] | 
4 | cause destabilization of ALK-2 | Cc1nc(-c2cccc(S(=O)(=O)N3CCC(C(=O)NCCc4nc5ccccc5[nH]4)CC3)c2)no1 [compound 17, N-[2-(1H-1,3-benzodiazol-2-yl)ethyl]-1-[3-(5-methyl-1,2,4-oxadiazol-3-yl)benzenesulfonyl]piperidine-4-carboxamide] | 
5 | cause destabilization of ALK-2 | Cc1nc(-c2cccc(S(=O)(=O)N3CCC(C(=O)Nc4cccc5c4CCCC5)CC3)c2)no1 [compound 19, 1-[3-(5-methyl-1,2,4-oxadiazol-3-yl)benzenesulfonyl]-N-(5,6,7,8-tetrahydronaphthalen-1-yl)piperidine-4-carboxamide] | 
6 | cause destabilization of ALK-2 | Cc1nc(-c2cccc(N3CC(C(=O)N4CCN(Cc5ccc6c(c5)OCO6)CC4)CC3=O)c2)no1 (centres unmarked) [compound 20, 4-[4-(1,3-benzodioxol-5-ylmethyl)piperazine-1-carbonyl]-1-[3-(5-methyl-1,2,4-oxadiazol-3-yl)phenyl]pyrrolidin-2-one] | 
7 | cause destabilization of ALK-2 | Cc1nc(NS(=O)(=O)c2ccc3c(c2)C2C4CCC(C4)C2C(c2cccc(C(=O)O)c2)N3)oc1C (centres unmarked) [compound 24, 3-{2-[(4,5-dimethyl-1,3-oxazol-2-yl)sulfamoyl]-5,6,6a,7,8,9,10,10a-octahydro-7,10-methanophenanthridin-6-yl}benzoic acid] | 
8 | cause destabilization of ALK-2 | Cc1cccc(-c2cccc(NC(=O)C3CCCN(C(=O)c4ccnc(N)c4)C3)c2)c1 (centres unmarked) [compound 28, 1-(2-aminoisonicotinoyl)-N-(3′-methyl-3-biphenylyl)-3-piperidinecarboxamide] | 
